This assay concerns BDF1 mice, M5076 sarcoma ip, median survival T/C. The assay is described as follows: NCI In Vivo Anticancer Drug Screen. Data for tumor model Sarcoma M5076 (intraperitoneal) in B6D2F1 (BDF1) mice. As to conditions: endpoint: median survival time, higher = longer survival. The method, then:
The antitumor activity of compounds was measured in mice bearing transplantable tumors. Survival or tumor size were measured and the results are expressed as the measurement made in the treated group (T) divided by the measurement made in the vehicle treated control group (C). The tumor model used in this assay is Sarcoma M5076 (intraperitoneal) in B6D2F1 (BDF1) mice

Where [1] appears, read: dose: 100.0 mg/kg/injection, schedule: Q04DX004 (ip), vehicle: saline.
[2] abbreviates: dose: 100.0 mg/kg/injection, schedule: Q04DX005 (ip), vehicle: saline.

From PubChem BioAssay AID286 (DTP/NCI, 2004) come the findings set out here.

Several values for one entry are separate records, joined by “and”; a condition that tells them apart may be missing. Equal entries are not always repeated. Toxic doses and inconclusive results are not listed.

`O=C(O)c1ccc(C(=O)O)c(C(=O)O)c1.[NH-]C1CCCCC1[NH-].[Pt+2]`: the T/C is, setting by setting: (dose: 3.11 mg/kg/injection, schedule: Q04DX005 (ip), vehicle: sodium bicarbonate) 206 % of control; (dose: 5.18 mg/kg/injection, schedule: Q04DX005 (ip), vehicle: sodium bicarbonate) 181 % of control; (dose: 8.64 mg/kg/injection, schedule: Q04DX005 (ip), vehicle: sodium bicarbonate) 216 % of control; (dose: 14.4 mg/kg/injection, schedule: Q04DX005 (ip), vehicle: sodium bicarbonate) 245 % of control; (dose: 24.0 mg/kg/injection, schedule: Q04DX005 (ip), vehicle: sodium bicarbonate) 381 % of control; (dose: 40.0 mg/kg/injection, schedule: Q04DX005 (ip), vehicle: sodium bicarbonate) 87 % of control.
As for `O=C1N[C@H]2[C@H](O)[C@H](O)[C@@H](O)[C@H](O)[C@@H]2c2cc3c(c(O)c21)OCO3`, the T/C by setting is: (dose: 0.38 mg/kg/injection, schedule: Q01DX009 (ip), vehicle: saline + alcohol) 153 % of control; (dose: 0.75 mg/kg/injection, schedule: Q01DX009 (ip), vehicle: saline + alcohol) 159 % of control; (dose: 1.5 mg/kg/injection, schedule: Q01DX009 (ip), vehicle: saline + alcohol) 161 % of control and 166 % of control; (dose: 3.0 mg/kg/injection, schedule: Q01DX009 (ip), vehicle: saline + alcohol) 184 % of control and 165 % of control.
On to `Cc1c2ccncc2c(C)c2c1[nH]c1ccccc12`, for which the T/C is 170 % of control (dose: 40.0 mg/kg/injection, schedule: Q04DX004 (ip), vehicle: saline with Tween-80) and 191 % of control (dose: 80.0 mg/kg/injection, schedule: Q04DX004 (ip), vehicle: saline with Tween-80).
Regarding `S=c1nc[nH]c2nc[nH]c12`, the T/C was 96 % of control (dose: 20.0 mg/kg/injection, schedule: Q04DX005 (ip), vehicle: alkali diluted with saline) and 120 % of control (dose: 80.0 mg/kg/injection, schedule: Q04DX005 (ip), vehicle: alkali diluted with saline).
`O=c1[nH]cc(F)c(=O)[nH]1`: the T/C is 185 % of control (dose: 6.25 mg/kg/injection, schedule: Q04DX005 (ip), vehicle: saline); 117 % of control (dose: 16.0 mg/kg/injection, schedule: Q01DX009 (ip), vehicle: saline); 123 % of control (dose: 21.6 mg/kg/injection, schedule: Q04DX004 (ip), vehicle: saline); 112 % of control (dose: 50.0 mg/kg/injection, schedule: Q04DX005 (ip), vehicle: saline); 154 % of control under setting [1]; 176 % of control under setting [2].
On to `CC1=C[P+](c2ccccc2)(c2ccccc2)C=C(c2ccccc2)O1`, for which the T/C reads like this: (dose: 1.25 mg/kg/injection, schedule: Q04DX004 (ip), vehicle: saline + alcohol) 99 % of control; (dose: 2.5 mg/kg/injection, schedule: Q04DX004 (ip), vehicle: saline + alcohol) 107 % of control; (dose: 5.0 mg/kg/injection, schedule: Q04DX004 (ip), vehicle: saline + alcohol) 118 % of control.
As to `COc1cc2cc(c1Cl)N(C)C(=O)C[C@H](OC(=O)[C@H](C)N(C)C(C)=O)[C@]1(C)O[C@H]1[C@H](C)[C@@H]1C[C@@](O)(NC(=O)O1)[C@H](OC)C=C/C=C(\C)C2`, the T/C by setting is: (dose: 37.0 micrograms/kg/injection, schedule: Q04DX004 (ip), vehicle: saline) 117 % of control; (dose: 37.0 micrograms/kg/injection, schedule: Q04DX005 (ip), vehicle: saline) 113 % of control; (dose: 75.0 micrograms/kg/injection, schedule: Q04DX004 (ip), vehicle: saline) 112 % of control; (dose: 75.0 micrograms/kg/injection, schedule: Q04DX005 (ip), vehicle: saline) 123 % of control; (dose: 150.0 micrograms/kg/injection, schedule: Q04DX004 (ip), vehicle: saline) 119 % of control.
Take `CCC1(O)CC2CN(CCc3c([nH]c4ccccc34)C(C(=O)OC)(c3cc4c(cc3OC)N(C)C3C(O)(C(N)=O)C(O)C5(CC)C=CCN6CCC43C65)C2)C1` (centres undefined) (tested in a mixture with another compound): the T/C runs as follows: (dose: 0.5 mg/kg/injection, schedule: Q04DX005 (ip), vehicle: saline) 208 % of control; (dose: 1.0 mg/kg/injection, schedule: Q04DX005 (ip), vehicle: saline) 208 % of control.
Take `COc1cc2nc3occc3c(OC)c2cc1OCC(O)C(C)(C)O` (centres undefined): the T/C is 106 % of control (dose: 2.0 mg/kg/injection, schedule: Q01DX009 (ip), vehicle: Klucel (hydroxypropylcellulose) (HPC)); 117 % of control (dose: 4.0 mg/kg/injection, schedule: Q01DX009 (ip), vehicle: Klucel (hydroxypropylcellulose) (HPC)); 106 % of control (dose: 8.0 mg/kg/injection, schedule: Q01DX009 (ip), vehicle: Klucel (hydroxypropylcellulose) (HPC)); 113 % of control (dose: 16.0 mg/kg/injection, schedule: Q01DX009 (ip), vehicle: Klucel (hydroxypropylcellulose) (HPC)); 106 % of control (dose: 32.0 mg/kg/injection, schedule: Q01DX009 (ip), vehicle: Klucel (hydroxypropylcellulose) (HPC)).
In the case of `C=C1C(O)C2OC3(CCC(/C=C/C(C)C4CC5(C)SC5C5(OC(CC(C)(O)C(=O)O)CCC5O)O4)O3)CCC2OC1C(O)CC(C)C1OC2(CCCCO2)CCC1C` (centres undefined), the T/C is 108 % of control (dose: 0.5 micrograms/kg/injection, schedule: Q01DX009 (ip), vehicle: saline + alcohol); 111 % of control (dose: 1.0 micrograms/kg/injection, schedule: Q01DX009 (ip), vehicle: saline + alcohol); 120 % of control (dose: 2.0 micrograms/kg/injection, schedule: Q01DX009 (ip), vehicle: saline + alcohol); 155 % of control (dose: 2.5 micrograms/kg/injection, schedule: Q01DX009 (ip), vehicle: saline + alcohol).
Regarding `COC(=O)[C@@]12OC[C@]34[C@H]([C@@H](O)[C@@H]1O)[C@@]1(C)CC(=O)C(O)=C(C)[C@@H]1C[C@H]3OC(=O)[C@H](OC(=O)/C=C(\C)C(C)C)[C@@H]24`, the T/C (dose: 0.12 mg/kg/injection, schedule: Q04DX004 (ip), vehicle: saline) is 104 % of control and 107 % of control and 113 % of control; the T/C (dose: 0.12 mg/kg/injection, schedule: Q04DX005 (ip), vehicle: saline) was 108 % of control (2×) and 116 % of control; the T/C (dose: 0.13 mg/kg/injection, schedule: Q04DX004 (ip), vehicle: saline) was 111 % of control and 114 % of control; the T/C (dose: 0.13 mg/kg/injection, schedule: Q04DX005 (ip), vehicle: saline) was 106 % of control and 114 % of control.
As to `Cc1nc(C(Cl)(Cl)Cl)[nH]c(=O)c1SCCO`, the T/C (dose: 50.0 mg/kg/injection, schedule: Q04DX004 (ip), vehicle: distilled water + alcohol) was 101 % of control; the T/C (dose: 100.0 mg/kg/injection, schedule: Q04DX004 (ip), vehicle: distilled water + alcohol) is 93 % of control; the T/C (dose: 200.0 mg/kg/injection, schedule: Q04DX004 (ip), vehicle: distilled water + alcohol) was 94 % of control; the T/C (dose: 400.0 mg/kg/injection, schedule: Q04DX004 (ip), vehicle: distilled water + alcohol) was 96 % of control.
With `Nc1n[nH]c2ccccc12`, the T/C is, setting by setting: (dose: 50.0 mg/kg/injection, schedule: Q04DX004 (ip), vehicle: acid diluted with saline) 112 % of control; (dose: 100.0 mg/kg/injection, schedule: Q04DX004 (ip), vehicle: acid diluted with saline) 113 % of control; (dose: 200.0 mg/kg/injection, schedule: Q04DX004 (ip), vehicle: acid diluted with saline) 112 % of control.
In the case of `Nc1nncs1`, the T/C runs as follows: (dose: 100.0 mg/kg/injection, schedule: Q04DX004 (ip), vehicle: saline with Tween-80) 113 % of control; under setting [1], 112 % of control and 116 % of control and 121 % of control; (dose: 100.0 mg/kg/injection, schedule: Q04DX005 (ip), vehicle: saline with Tween-80) 112 % of control; under setting [2], 119 % of control; (dose: 200.0 mg/kg/injection, schedule: Q04DX004 (ip), vehicle: saline with Tween-80) 116 % of control; (dose: 200.0 mg/kg/injection, schedule: Q04DX004 (ip), vehicle: saline) 112 % of control and 124 % of control. The T/C is 121 % of control (dose: 200.0 mg/kg/injection, schedule: Q04DX005 (ip), vehicle: saline with Tween-80); 116 % of control and 124 % of control (dose: 200.0 mg/kg/injection, schedule: Q04DX005 (ip), vehicle: saline); 119 % of control (dose: 400.0 mg/kg/injection, schedule: Q04DX004 (ip), vehicle: saline with Tween-80); 110 % of control (dose: 400.0 mg/kg/injection, schedule: Q04DX004 (ip), vehicle: saline); 109 % of control (dose: 400.0 mg/kg/injection, schedule: Q04DX005 (ip), vehicle: saline); 124 % of control (dose: 800.0 mg/kg/injection, schedule: Q04DX004 (ip), vehicle: saline with Tween-80). Also, the T/C (dose: 800.0 mg/kg/injection, schedule: Q04DX004 (ip), vehicle: saline) was 106 % of control and the T/C (dose: 800.0 mg/kg/injection, schedule: Q04DX005 (ip), vehicle: saline) was 151 % of control.
